This note sets out measurements from the Kinase Knowledgebase extract (Sharma et al. 2016).

Molecules are shown by their SMILES.

The experiment concerns the target CDK2 (UniProt P24941). Put plainly: Enzyme Assay. The note with it: concentration not given here.
For `CN(C)c1ccc(Nc2nc(N)c(-c3nc(-c4ccc5c(c4)CCC(=O)N5)cs3)s2)cc1`, the inhibition – broadly, the change of the read-out against control, counted positive when it falls – was -2.5%.

`CCN(CC)c1ccc(-c2csc(-c3sc(Nc4cc(OC)c(OC)c(OC)c4)nc3N)n2)cc1`: the inhibition is 6.3%. In the case of `CCc1cc2c(cc1-c1csc(-c3sc(Nc4cc(OC)c(OC)c(OC)c4)nc3N)n1)C(C)(C)CCC2(C)C` it was 13.8%. For `COc1cc(Nc2nc(N)c(-c3nc(-c4ccc(-c5ccc(Cl)cc5Cl)o4)cs3)s2)cc(OC)c1OC`, the inhibition was determined as 12.4%.

`COc1cc(Nc2nc(N)c(-c3nc(-c4cc(-c5ccc(Cl)c(Cl)c5)no4)cs3)s2)cc(OC)c1OC`: the inhibition came to 17.5%.

In the case of `CC(C)c1ccc(Nc2nc(N)c(-c3nc(-c4ccc(OC(=O)c5ccccc5)cc4)cs3)s2)cc1`, the inhibition came out at 7.3%. In the case of `COc1cc(Nc2nc(N)c(-c3nc(-c4cc5cc(Cl)ccc5o4)cs3)s2)cc(OC)c1OC`, the inhibition is -6%. In the case of `COc1cc(Nc2nc(N)c(-c3nc(-c4c(Cl)c(Cl)nc(Cl)c4Cl)cs3)s2)cc(OC)c1OC` it was 10.3%; in that of `COc1cc(Nc2nc(N)c(-c3nc(-c4cc(Br)c(Cl)s4)cs3)s2)cc(OC)c1OC`, -0.2%; in that of `CCOC(=O)c1ccccc1-c1csc(-c2sc(Nc3cc(OC)c(OC)c(OC)c3)nc2N)n1`, 4.4%. In the case of `COc1cc(Nc2nc(N)c(-c3nc(-c4ccc(Cl)cc4)cs3)s2)cc(OC)c1OC` it was 0.1%. In the case of `COc1cc(Nc2nc(N)c(-c3noc(-c4ccsc4)n3)s2)cc(OC)c1OC` it was 21%; in that of `COc1ccccc1-c1csc(-c2sc(Nc3cc(OC)c(OC)c(OC)c3)nc2N)n1`, -3.5%. `N#Cc1ccc(-c2csc(-c3sc(Nc4ccc(S(N)(=O)=O)cc4)nc3N)n2)cc1`: the inhibition came out at 13.3%. Take `COC(=O)c1ccc(-c2csc(-c3sc(Nc4cc(OC)c(OC)c(OC)c4)nc3N)n2)cc1`: the inhibition was determined as 0%. For `CC(C)c1ccc(Nc2nc(N)c(-c3nc(-c4ccccc4)cs3)s2)cc1`, the inhibition was 20.9%. As to `Nc1nc(Nc2ccc(S(N)(=O)=O)cc2)sc1-c1nc(-c2ccc(Cl)cc2Cl)cs1`, the inhibition was 36%. In the case of `Nc1nc(Nc2ccc(S(N)(=O)=O)cc2)sc1-c1nc(-c2cccc([N+](=O)[O-])c2)cs1` it was 17.8%; in that of `Nc1nc(Nc2ccc(S(N)(=O)=O)cc2)sc1C1=NC2(O)OCCC2S1` (centres undefined), 29%; in that of `COc1cc(Nc2nc(N)c(-c3nc(-c4cc(-c5ccccc5)no4)cs3)s2)cc(OC)c1OC`, 11.2%.

Take `Nc1nc(Nc2ccc(S(N)(=O)=O)cc2)sc1-c1nc(-c2ccc(F)cc2F)cs1`: the inhibition amounted to 57%. In the case of `COc1cc(Nc2nc(N)c(-c3nc(-c4sc5ccc(Cl)cc5c4C)cs3)s2)cc(OC)c1OC`, the inhibition stood at 9.65%. For `CCOC(=O)c1nc(-c2sc(Nc3ccc(S(N)(=O)=O)cc3)nc2N)sc1Cc1ccccc1`, the inhibition worked out at 36%.

Take `Cc1c(-c2csc(-c3sc(Nc4ccc(C(C)C)cc4)nc3N)n2)sc2ccc(Cl)cc12`: the inhibition stood at 34.8%. In the case of `COc1cc(Nc2nc(N)c(-c3nc(-c4ccc(-c5ccccc5)cc4)cs3)s2)cc(OC)c1OC` it was 20.4%; in that of `COc1cc(OC)c(-c2csc(-c3sc(Nc4cc(OC)c(OC)c(OC)c4)nc3N)n2)c(O)c1Cl`, 11.8%; in that of `COc1cc(Nc2nc(N)c(-c3nc(-c4ccc5c(c4)C(C)(C)CCC5(C)C)cs3)s2)cc(OC)c1OC`, 4.2%. Turning to `COc1cc(Nc2nc(N)c(-c3nc(-c4ccc(C(F)(F)F)cc4)cs3)s2)cc(OC)c1OC`, the inhibition was 13.9%. Under `COc1cc(Nc2nc(N)c(-c3nc(-c4sc5ccccc5c4C)cs3)s2)cc(OC)c1OC` stands 23.1%.
